# Results: publication PMC8657723, “Novel Pituitary Actions of TAC4 Gene Products in Teleost” (International Journal of Molecular Sciences, 2021)
# Entries after “also recorded” stand apart in the source; their conditions may differ. Ends that are not written are not given here.
# How the values were obtained:
# [1] = test system: carp pituitary cells; conditions: cited from earlier work; for LHβ secretion / PRL and SLα transcriptional levels / PRL secretion / SLα secretion: pituitary cells of carp
# Text: In mammals, the tachykinin (TAC) family includes three members, namely tachykinin 1 (TAC1), tachykinin 3 (TAC3) (tachykinin 2 (TAC2) in rodents), and TAC4, respectively. Among them, TAC1 gene encodes substance P (SP) and neurokinin A (NKA). SP is known to be involved in the regulation of pain control/injury, neurogenicinflammation and obesity with mammals. Compared with mammals, teleost have undergone an additional genome duplication during evolution, which is called fish-specific genome duplication (FSGD) or the 3R hypothesis. […] The resear ... || In mammals, many studies have focused on the actions of hemokinin on immunological regulation and inflammation. However, little information is available about its endocrinology function. […] Similar resu ... || (+ 1 further places)
# [2] = test system: carp NK2R; parameters: method as in PMID 28323939; conditions: cited from earlier work
# Text: In mammals, the biological action of tachykinins is mediated by three GPCRs, namely NK1R, NK2R, and NK3R, which are stimulated preferentially by SP, NKA, and NKB, respectively. […] In the present study, due to the third round whole-genome duplication, 6 NKRs were detected in grass carp, namely NK1Ra, NK1Rb, NK2R, NK3Ra1, NK3Ra2, and NK3Rb, respectively. Based on the ...
# [3] = test system: rats; parameters: method as in 2 sources, ref 26, 51 = [26]; PMID 19854230; doi:10.1016/j.peptides.2009.10.013; 26. Yang Y. Dong S. Effects of Endokinin A/B and Endokinin C/D on the modulation of pain in mice Peptides 2010 31 94 100 10.1016/j.peptides.2009.10.013 19854230 || [51]; PMID 12524318; doi:10.1016/S0006-3495(03)74885-1; 51. Grace R.C. Chandrashekar I.R. Cowsik S.M. Solution structure of the tachyk-inin peptide eledoisin Biophys. J. 2003 84 655 664 10.1016/S0006-3495(03)74885-1 12524318 PMC1302646 ||| ref 26, 53, 54 = [26]; PMID 19854230; doi:10.1016/j.peptides.2009.10.013; 26. Yang Y. Dong S. Effects of Endokinin A/B and Endokinin C/D on the modulation of pain in mice Peptides 2010 31 94 100 10.1016/j.peptides.2009.10.013 19854230 || [53]; PMID 17655832; doi:10.1016/j.brainres.2007.05.062; 53. Naono R. Nakayama T. Ikeda T. Matsushima O. Nishimori T. Leucine at the carboxyl-terminal of endokinins C and D contributes to elicitation of the antagonistic effect on substance P in rat pain pro || [54]; PMID 17101218; doi:10.1016/j.neulet.2006.09.024; 54. Yoshioka D. Takebuchi F. Nishimori T. Naono R. Ikeda T. Nakayama T. Intrathecal administration of the common carboxyl-terminal decapeptide in end-okinin A and endokinin B evokes scratching behavio; conditions: cited from earlier work; for effect on SP- or EKA/B-induced pain-related behaviors: simultaneous treatment; for pain-related behaviors: central administration, scratching, paw withdrawal, thermal hyperalgesia
# [4] = test system: mammals; parameters: method as in PMID 18337115; conditions: cited from earlier work
# [5] = test system: sexually mature female zebrafish; conditions: intraperitoneal injection; cited from earlier work
# Text: In mammals, TAC3 encodes neurokinin B (NKB), is known to be involved in the regulation of smooth muscles of the gastrointestinal tract, secretion of intestinal epithelial fluid, vasodilation, and stimulating sperm motility. […] The resear ...
# [6] = parameters: method as in PMID 20233609, PMID 23317790; conditions: cited from earlier work
# [7] = test system: six NKR isoforms; experiment: Functional activation of the six grass carp NKR isoforms, NFAT-Luc reporter in HEK293T cells; assay type: cell-based, grass carp (Ctenopharyngodon idellus); conditions: 24 h
# Protocol: To clarify the receptor selectivity of TAC4 gene products, a transfection experiment was conducted in HEK293T cells, and the fluorescent signal was detected by the firefly luciferase reporter gene detection kit. Firstly, the cDNA sequences of neurokinin receptor 1 isoforms a (NK1Ra), neurokinin receptor 1 isoforms b (NK1Rb), NK2R, neurokinin receptor 3 isoforms a1 (NK3Ra1), neurokinin receptor 3 isoforms a2 (NK3Ra2), and neurokinin receptor 3 isoforms b (NK3Rb) were isolated from grass carp pituitary, and the coding region of the six receptors were then subcloned into the eukaryotic expression vector pcDNA3.1. Secondly, the HEK293T cells were co-transfected with the plasmids of NFAT-Luc (Nuclear factor of activated T cells-luciferase), green fluorescent protein (GFP), and each pcDNA3.1-NKRs by using Lipofectamine 3000 (Thermo Fisher). The transfected HEK293T cells were incubated with various concentration HK-1 (1–10,000 nM), HK-2 (1–10,000 nM), or HK1-V7F (1–10,000 nM) for 24 h, respectively. Finally, the transfected cells were collected to detect the luciferase value according to the instructions of the firefly luciferase reporter gene detection kit.
# To clarify the receptor selectivity of HK1 and HK2 for the six NKRs, HEK-293T cell lines were established to stably express NK1Ra, NK1Rb, NK2R, NK3Rb, NK3Ra1, or NK3Ra2 were established, respectively. The cells were then used for transfection study with NFAT-Luc vectors, which was allowed for functional evaluation of the activation status of Ca^2+-dependent pathway.
# Figure 2 Receptor selectivity of HK1, HK2, and HK1-V7F. The nuclear factor of activated T-cells (NFAT)-Luc reporter together with NK1Ra, NK1Rb, NK2R, NK3Rb, NK3Ra1, or NK3Ra2, were transiently transfected into HEK-293 cells, respectively. The cells were incubated with increasing levels of grass carp HK1, HK2, or HK1-V7F (0.1–1000 nM), respectively. The luciferase activities were normalized against renilla expression in the same sample to adjust for potential variations in transfection efficiency. Each point is determined quadruplicate and is given as a mean ± SEM. The groups denoted by different letters represent significant differences at p-value < 0.05 (ANOVA followed Dunnett’s test).
# [8] = test system: grass carp pituitary cells; experiment: RT-qPCR of pituitary gene mRNA expression after peptide treatment of grass carp pituitary cells; assay type: cell-based, grass carp (Ctenopharyngodon idellus); conditions: 0.1–1000 nM, 24 h
# Text: To further confirm the pituitary actions of HKs in grass carp, trypsin digestion method was used to prepare for grass carp primary cultured pituitary cells. […] After drug treatment, total RNA was extracted from adherent cells by Trizol, and then subjected to reverse transcription using HifairTM III 1st Strand cDNA Synthesis Kit (Yeasen, Shanghai, China). In the present study, β-actin was used as the internal reference gene, and then, the transcript levels of PRL, SLα, CART2, UTS1, and NMB1 were detected by using a ABI 7500 real-time PCR system (see Supplementary Table S2 for primer sequences and PCR condition). In addition, the plasmid DNA containing the gene coding sequence was serially diluted as a standard for data calibration.
# In this study, RT-qPCR was used to detect mRNA expression for TAC4, NKRs, PRL, SLα, CART2, UTS1, SN2, and NMB1. In the ABI7500 software, the dynamic mRNA concentration detection range of the double standard curve is 10^5, and the correlation coefficient is >0.95. […] In the transfection experiment, the detected firefly luciferase activity was routinely normalized with the GFP activity expressed in the same well, expressed as the luciferin activity ratio Luc ratio. The data from four parallel experiments was presented as mean ± SEM in the figure. All the data were analyzed by ANOVA, and then subjected to Dunnett’s test in GraphPad Prism 7.0. The significant differences between groups were indicated by p < 0.05.
# Figure 5 TAC4 gene products (HK1 and HK2) induced PRL (A) and SLα (B) mRNA expression in grass carp pituitary cells. Time course of grass carp HK1 (1 μM) and HK2 (1 μM) on PRL (A) and SLα (B) mRNA expression in grass carp pituitary cells. Dose-dependence of 24-h treatment with increasing levels of HK1 and HK2 (0.1–1000 nM) on PRL (A) and SLα (B) mRNA expression in grass carp pituitary cells. After drug treatment, the total RNA of the cells was extracted by the Trizol method, and the expression of various genes was detected by RT-PCR. Data presented were expressed as mean ± SEM, and the differences between groups were significant at p-value < 0.05 by labeling diverse letters.
# Figure 6 TAC4 gene products (HK1 and HK2) induced CART2, NMB1, and UTS1 mRNA expression in grass carp pituitary cells. Time course of grass carp HK1 (1 μM) and HK2 (1 μM) on CART2 (A), NMB1 (B), and UTS1 (C) mRNA expression in grass carp pituitary cells. Dose-dependence of 24-h treatment with increasing levels of HK1 or HK2 (0.1–1000 nM) on CART2 (A), NMB1 (B), and UTS1 (C) mRNA expression in grass carp pituitary cells. After drug treatment, the total RNA of the cells was extracted by the Trizol method, and the expression of various genes were detected by RT-PCR. Data presented were expressed as mean ± SEM, and the differences between groups were significant at p-value < 0.05 by labeling diverse letters.
# Figure 9 Phe to Val mutation in FXGLM motif in PRL, SLα, and UTS1 regulation by HK2 in grass carp pituitary cells. (A) Effects of HK1-V7F on PRL, SLα, and UTS1 mRNA expression in grass carp pituitary cells. In this experiment, grass carp pituitary cells were incubated for 24 h with increasing levels of HK1-V7F (0.1–1000 nM). (B) Suppressed effects of HK1 on HK2-induced PRL, SLα, and UTS1 mRNA expression in grass carp pituitary cells. Pituitary cells were challenged for 24 h with grass carp HK2 (0.1 µM) in the presence or absence of HK1 (1 µM) and HK1 (10 µM). In these experiment, Trizol method was used to extract total cell RNA, and RT-PCR was used to detect PRL, SLα, and UTS1 mRNA expression. Data presented are expressed as mean ± SEM, and the differences between groups were significant at p-value < 0.05 by labeling diverse letters.
substance,measurement,setting,value
"neurokinin A (HKTDSFVGLM; ends and bridges not checked; UniProt P20366 98-107, looked up) [NKA, TAC1 gene product]",LHβ secretion,[1],can trigger the secretion
same,PRL and SLα transcriptional levels,[1],increase in parallel
same,PRL secretion,[1],can trigger the secretion
same,SLα secretion,[1],can trigger the secretion
same,activation of carp NK2R,[2],comparable efficacy and potency
"endokinin C (KKAYQLEHTFQGLL; ends and bridges not checked; UniProt Q86UU9 82-95, looked up) [EKC, human TAC4 product with FXGLL motif]",effect on SP- or EKA/B-induced pain-related behaviors,[3],can be blocked
endokinin D [EKD],effect on SP- or EKA/B-induced pain-related behaviors,[3],can be blocked
"CRH: corticortropin-releasing hormone (SEEPPISLDLTFHLLREVLEMARAEQLAQQAHSNRKLMEII; ends and bridges not checked; UniProt P06850 154-194, looked up)",food intake and energy expenditure,[4],reduce food intake and induce energy expenditure
neurokinin B-related peptide [NKBRP],PRL and SLα secretion and mRNA synthesis,[1]; grass carp pituitary cells,promote PRL and SLα secretion and mRNA synthesis
same,LHβ secretion in zebrafish,[5],induce LHβ secretion
"EKA/B: endokinins A and B, human TAC4 products (GKASQFFGLM; ends and bridges not checked; UniProt Q86UU9 58-67, looked up)",pain-related behaviors,[3],induce pain-related behaviors
"substance P (RPKPQQFFGLM; ends and bridges not checked; UniProt P20366 58-68, looked up) [SP, TAC1 gene product]","LHβ release, short-term treatment",[1]; 3 h,induced the release of LHβ
same,"LHβ mRNA expression, prolonged treatment",[1]; 24 h,inhibited LHβ mRNA expression
same,LHβ secretion,[1],can trigger the secretion
same,PRL and SLα transcriptional levels,[1],increase in parallel
same,PRL secretion,[1],can trigger the secretion
same,SLα secretion,[1],can trigger the secretion
same,activation of carp NK2R,[2],comparable efficacy and potency
same,pain-related behaviors,[3],induce pain-related behaviors
neuromedin B [NMB],feeding and gastric peristalsis,[6],inhibit feeding and gastric peristalsis
"TPGLQQFFGLM-NH2 [HK1-V7F, Val to Phe mutant of HK1, …-NH2]","ED50, NFAT-Luc luciferase activity, NKR isoforms (in words)",[7]; HEK-293T expressing each NKR,nanomolar dose range
same,activation of the six NKR isoforms (in words),"[7]; NFAT-Luc luciferase, HEK293T, NK1Ra, NK1Rb, NK2R, NK3Ra1, NK3Ra2, NK3Rb",notably enhanced
same,"PRL mRNA expression, HK1-V7F dose-response",[8],levels comparable to that induced by HK2
same,"SLα mRNA expression, HK1-V7F dose-response",[8],levels comparable to that induced by HK2; also recorded: markedly enhanced to the levels for HK2
same,"UTS1 mRNA expression, HK1-V7F dose-response",[8],levels comparable to that induced by HK2
"neurokinin B (DMHDFFVGLM; ends and bridges not checked; UniProt Q9UHF0 81-90, looked up) [NKB, TAC3 gene product]",pituitary PRL and SLα synthesis and secretion,[1],significantly induce pituitary PRL and SLα synthesis and secretion
same,PRL and SLα secretion and mRNA synthesis,[1]; grass carp pituitary cells,promote PRL and SLα secretion and mRNA synthesis
same,"UTS1, CART2 and NMB1 mRNA expression",[1]; grass carp pituitary cells,could stimulate
same,LHβ secretion in zebrafish,[5],induce LHβ secretion
